Results published in paper PMC6717215, “Chemical characterization and biological activity data for a novel indirubin derivative, LDD-1819” (Data in Brief, 2019).
Where a name gives a salt, the structure may show the parent alone.

Columns and labels:
[1] = target: T1, glycogen synthase kinase-3 β (GSK-3β) (Homo sapiens, UniProt P49841); assay: Z′-LYTE FRET peptide biochemical kinase assay, ATP at Km, concentration-dependent
T1 construct: gene GSK3B

aurora kinase A = target: T2, aurora kinase A (Homo sapiens, UniProt O14965); assay: as above
T2 construct: gene AURKA
T2 sequence (O14965 1-403): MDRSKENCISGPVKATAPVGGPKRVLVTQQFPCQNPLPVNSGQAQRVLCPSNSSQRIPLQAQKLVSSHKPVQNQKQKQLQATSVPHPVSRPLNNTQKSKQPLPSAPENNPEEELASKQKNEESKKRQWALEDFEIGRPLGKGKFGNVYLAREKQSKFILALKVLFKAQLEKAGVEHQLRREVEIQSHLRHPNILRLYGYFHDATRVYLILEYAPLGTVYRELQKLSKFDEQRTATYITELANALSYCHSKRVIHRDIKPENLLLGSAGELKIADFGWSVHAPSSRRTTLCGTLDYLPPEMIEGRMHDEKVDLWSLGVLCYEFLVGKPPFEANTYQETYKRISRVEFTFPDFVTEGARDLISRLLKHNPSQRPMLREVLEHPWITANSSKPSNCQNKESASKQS

T1 sequence (P49841 whole entry): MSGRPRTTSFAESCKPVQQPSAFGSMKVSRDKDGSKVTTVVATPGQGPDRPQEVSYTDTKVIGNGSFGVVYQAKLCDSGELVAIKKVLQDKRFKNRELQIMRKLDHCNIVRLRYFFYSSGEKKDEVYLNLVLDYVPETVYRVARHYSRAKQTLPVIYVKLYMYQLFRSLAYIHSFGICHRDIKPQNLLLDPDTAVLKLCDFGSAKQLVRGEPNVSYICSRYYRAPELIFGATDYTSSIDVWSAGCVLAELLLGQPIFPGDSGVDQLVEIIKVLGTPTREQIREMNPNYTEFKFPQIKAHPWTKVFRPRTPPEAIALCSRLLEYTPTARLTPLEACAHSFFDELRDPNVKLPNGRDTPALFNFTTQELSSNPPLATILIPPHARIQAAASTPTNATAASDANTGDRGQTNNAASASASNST

IC50 [1]: 5.46 nM
IC50 (aurora kinase A): 222 nM
SMILES: NCCO/N=C1/C(=C2/C(=O)Nc3ccc([N+](=O)[O-])cc32)Nc2ccc(O)cc21 [LDD-1819, (2Z,3E)-3-((2-aminoethoxy)imino)-5-hydroxy-5′-nitro-[2,3′-biindolinylidene]-2′-one hydrochloride]
